Test results: publication PMC12141164, “Phase-1 study of vamotinib (PF-114), a 3rd generation BCR::ABL1 tyrosine kinase-inhibitor, in chronic myeloid leukaemia” (Annals of Hematology, 2025)
Where two headings read alike, the source gives them in different places.

Experiments:
[1] = Pharmacokinetics in plasma after single- and multiple-dose administration; assay type: in vivo, human
Description: Blood samples were obtained to evaluate pharmacokinetics and pharmacodynamics (Tables S1, S1.1, S1.2). Data on phosphorylated CrkL protein (pCrkL) concentration were evaluated in samples from 4 subjects.
Pharmacokinetic measurements were done on days 1 and 29–30 of treatment. […] Steady-state was reached after 8 days of dosing, Fig. 1.
PF-114 was determined in human plasma samples using validated analytical method. […] The analytical method used 200 µL of plasma sample for each analysis. Analyte was isolated from plasma by a solid-phase extraction procedure performed on Oasis MCX extraction columns.
According to the Protocol, population for the pharmacokinetic analysis consists of all patients, who took at least one dose of PF-114, with respect to which sufficient amount of data on concentration of the study drug in the blood. The analysis of data on pharmacokinetic properties of the drug is carried out in this population of patients. All PK analyses will be presented on two subsets described in more detail below:
The PK concentration set (PK-C): This set includes all treated subjects who have at least 1 measured concentration.
The PK parameter analysis set (PK-P): This set consists of subjects from PK-C, who have no major protocol violation relevant to the evaluation of Pharmacokinetics, and who have at least 1 estimated PK parameter. Listings include all available raw data without any exclusions.

[2] = system: EPHA6; conditions: kinase inhibition profiles; cited from earlier work
[3] = system: ZAK; conditions: kinase inhibition profiles; cited from earlier work
[4] = system: rats; parameters: method as in PMID 25394714; conditions: pre-clinical toxicology; cited from earlier work
[5] = human, plasma, oral, 50 mg, Multiple-dose administration
[6] = human, plasma, oral, 50 mg, Single-dose administration
[7] = human, plasma, oral, 100 mg, Multiple-dose administration
[8] = human, plasma, oral, 100 mg, Single-dose administration
[9] = human, plasma, oral, 200 mg, Multiple-dose administration
[10] = human, plasma, oral, 200 mg, Single-dose administration
[11] = human, plasma, oral, 300 mg, Multiple-dose administration
[12] = human, plasma, oral, 300 mg, Single-dose administration
[13] = human, plasma, oral, 400 mg, Multiple-dose administration
[14] = human, plasma, oral, 400 mg, Single-dose administration
[15] = human, plasma, oral, 500 mg, Multiple-dose administration
[16] = human, plasma, oral, 500 mg, Single-dose administration
[17] = human, plasma, oral, 600 mg, Multiple-dose administration
[18] = human, plasma, oral, 600 mg, Single-dose administration
[19] = human, plasma, oral, 750 mg, Single-dose administration

Compound: Cc1ccc(C(=O)Nc2ccc(CN3CCN(C)CC3)c(C(F)(F)F)c2)cc1C#Cc1nnc2ccccn12 [vamotinib]
- Ctrough, Mean ([1]; Multiple-dose administration, 50 mg): 7,35 ng/ml
- Ctrough, Mean ([1]; Multiple-dose administration, 100 mg): 8,90 ng/ml
- Ctrough, Mean ([1]; Multiple-dose administration, 200 mg): 21,92 ng/ml
- Ctrough, Mean ([1]; Multiple-dose administration, 300 mg): 22,45 ng/ml
- Ctrough, Mean ([1]; Multiple-dose administration, 400 mg): 35,34 ng/ml
- Ctrough, Mean ([1]; Multiple-dose administration, 500 mg): 38,40 ng/ml
- Ctrough, Mean ([1]; Multiple-dose administration, 600 mg): 49,78 ng/ml
- linearity of pharmacokinetics (concentration-time profiles) ([1]; dose range 50–750 mg): linear or near-linear pharmacokinetics
- half-life ([1]; human, plasma, oral): 13.5 h
- Cmax [1, 5]: 33.3 ng/mL
- Tmax [1, 5]: 1.9 h
- AUC(0-t) ([1]; human, plasma, oral, 50 mg, Multiple-dose administration, 50 mg, read-out: AUC0-24, Mean): 445 ng·h/mL
- Cmax [1, 6]: 25.3 ng/mL
- Tmax [1, 6]: 2.67 h
- AUC(0-t) ([1]; human, plasma, oral, 50 mg, Single-dose administration, 50 mg, read-out: AUC0-t, Mean): 252 ng·h/mL
- Cmax [1, 7]: 94 ng/mL
- Tmax [1, 7]: 3.36 h
- AUC(0-t) ([1]; human, plasma, oral, 100 mg, Multiple-dose administration, 100 mg, read-out: AUC0-24, Mean): 1260 ng·h/mL
- Cmax [1, 8]: 89.7 ng/mL
- Tmax [1, 8]: 4.67 h
- AUC(0-t) ([1]; human, plasma, oral, 100 mg, Single-dose administration, 100 mg, read-out: AUC0-t, Mean): 1070 ng·h/mL
- Cmax [1, 9]: 109 ng/mL
- Tmax [1, 9]: 3.36 h
- AUC(0-t) ([1]; human, plasma, oral, 200 mg, Multiple-dose administration, 200 mg, read-out: AUC0-24, Mean): 1580 ng·h/mL
- Cmax [1, 10]: 82.1 ng/mL
- Tmax [1, 10]: 3.46 h
- AUC(0-t) ([1]; human, plasma, oral, 200 mg, Single-dose administration, 200 mg, read-out: AUC0-t, Mean): 1060 ng·h/mL
- Cmax [1, 11]: 148 ng/mL
- Tmax [1, 11]: 4.52 h
- AUC(0-t) ([1]; human, plasma, oral, 300 mg, Multiple-dose administration, 300 mg, read-out: AUC0-24, Mean): 2260 ng·h/mL
- Cmax [1, 12]: 125 ng/mL
- Tmax [1, 12]: 3.58 h
- AUC(0-t) ([1]; human, plasma, oral, 300 mg, Single-dose administration, 300 mg, read-out: AUC0-t, Mean): 1630 ng·h/mL
- Cmax [1, 13]: 177 ng/mL
- Tmax [1, 13]: 4 h
- AUC(0-t) ([1]; human, plasma, oral, 400 mg, Multiple-dose administration, 400 mg, read-out: AUC0-24, Mean): 2710 ng·h/mL
- Cmax [1, 14]: 120 ng/mL
- Tmax [1, 14]: 4.72 h
- AUC(0-t) ([1]; human, plasma, oral, 400 mg, Single-dose administration, 400 mg, read-out: AUC0-t, Mean): 1740 ng·h/mL
- Cmax [1, 15]: 228 ng/mL
- Tmax [1, 15]: 4.04 h
- AUC(0-t) ([1]; human, plasma, oral, 500 mg, Multiple-dose administration, 500 mg, read-out: AUC0-24, Mean): 3490 ng·h/mL
- Cmax [1, 16]: 116 ng/mL
- Tmax [1, 16]: 3.96 h
- AUC(0-t) ([1]; human, plasma, oral, 500 mg, Single-dose administration, 500 mg, read-out: AUC0-t, Mean): 1500 ng·h/mL
- Cmax [1, 17]: 179 ng/mL
- Tmax [1, 17]: 3.62 h
- AUC(0-t) ([1]; human, plasma, oral, 600 mg, Multiple-dose administration, 600 mg, read-out: AUC0-24, Mean): 2800 ng·h/mL
- Cmax [1, 18]: 212 ng/mL
- Tmax [1, 18]: 4.65 h
- AUC(0-t) ([1]; human, plasma, oral, 600 mg, Single-dose administration, 600 mg, read-out: AUC0-t, Mean): 3020 ng·h/mL
- Cmax [1, 19]: 225 ng/mL
- Tmax [1, 19]: 4.5 h
- AUC(0-t) ([1]; human, plasma, oral, 750 mg, Single-dose administration, 750 mg, read-out: AUC0-t, Mean): 3290 ng·h/mL
- time of dosing to reach steady-state ([1]; once daily dosing): 8 days
- concentration in the blood during the day ([1]; starting from a dose of 200 mg): exceeds 75 nM
- inhibition of EPHA6 [2]: not
- inhibition of ZAK [3]: not
- Rash [4]: Rash was seen
